Results as given in patent US12415786B2, “Substituted 2-heteroarylaminobenzenes and the salts thereof and their use as herbicidal agents” (Bayer Aktiengesellschaft, priority 2019, dated 2025).

Legend:
Format in all cases: in vivo
Matricaria inodora [1] = assay: Herbicidal pre-emergence action (greenhouse pots), MATIN; details: 1280 g/ha, visual scoring after about 3 weeks vs untreated controls
Procedure, shortened: (§1)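 Weed seeds were sown in sandy loam and covered with soil. Compounds formulated as WP or EC were applied to the covering soil surface as aqueous suspension or emulsion with 0.5% additive at 600 L/ha water, 1280 g/ha. After about 3 weeks in the greenhouse, damage was scored visually as % versus untreated controls.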

Stellaria media [2] = assay: Herbicidal post-emergence action (greenhouse pots), STEME; details: 1280 g/ha, visual rating about 3 weeks after treatment vs untreated controls
Procedure, shortened: (§2)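 Weeds were sown in sandy loam and treated at the one-leaf stage, 2–3 weeks after sowing. WP or EC formulations were applied with 0.5% additive at 600 L/ha water, at a rate of 1280 g/ha. Activity was rated visually after about 3 weeks against untreated controls (0% = untreated, 100% = dead).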

Poa annua [3] = assay: Herbicidal pre-emergence action (greenhouse pots), POAAN; details: 1280 g/ha, visual scoring after about 3 weeks vs untreated controls
Procedure, shortened: as §1

Abutilon theophrasti [4] = assay: Herbicidal pre-emergence action (greenhouse pots), ABUTH; details: 1280 g/ha, visual scoring after about 3 weeks vs untreated controls
From the text: (§3) In the examples and tables below, the following abbreviations are used: • Undesired Plants/Weeds: • ABUTH: Abutilon theophrasti • AGSTE: Agrostis tenuis • AMARE Amaranthus retroflexus • ECHCG: Echinochloa crus-galli • LOLRI: Lolium rigidum • MATIN: Matricaria inodora • POAAN: Poa annua • SETVI: Setaria viridis • STEME: Stellaria media A. Herbicidal Early Post-Emergence Action Seeds of mono- and dicotyledonous weed plants were placed in plastic pots in sandy loam soil (doubly sown with one species each of mono- or dicotyledonous weed plants per pot) and covered with soil. The compounds of the invention, formulated in the form of wettable powders (WP) or as emulsion concentrates (EC), were then applied onto the surface of the covering soil as aqueous suspension or emulsion with addition of 0.5% additive at a water application rate of 600 liters per hectare (converted). After the treatment, the pots were placed in a greenhouse and kept under good growth conditions for the test plants. After about 3 weeks, the effect of the preparations was scored visually in comparison with untreated controls as percentages. For example, 100% activity=the plants have died, 0% activity=like untreated control plants. Tables C1-C8 below show the effects of selected compounds of the general formula (I) according to Table 1 above on various harmful plants and an application rate corresponding to 1280 g/ha, which were obtained by the experimental procedure mentioned above.

Stellaria media [5] = assay: Herbicidal pre-emergence action (greenhouse pots), STEME; details: 1280 g/ha, visual scoring after about 3 weeks vs untreated controls
Procedure, shortened: as §1

Lolium rigidum [6] = assay: Herbicidal post-emergence action (greenhouse pots), LOLRI; details: 1280 g/ha, rated after about 3 weeks, 100% = plants have died, 0% = like untreated control plants
From the text: (§4) In the examples and tables below, the following abbreviations are used: • Undesired Plants/Weeds: • ABUTH: Abutilon theophrasti • AGSTE: Agrostis tenuis • AMARE Amaranthus retroflexus • ECHCG: Echinochloa crus-galli • LOLRI: Lolium rigidum • MATIN: Matricaria inodora • POAAN: Poa annua • SETVI: Setaria viridis • STEME: Stellaria media A. Herbicidal Early Post-Emergence Action Seeds of mono- and dicotyledonous weed plants were placed in plastic pots in sandy loam soil (doubly sown with in each case one species of mono- or dicotyledonous weed plants per pot), covered with soil and cultivated in a greenhouse under controlled growth conditions. 2 to 3 weeks after sowing, the test plants were treated at the one-leaf stage. The compounds of the invention, formulated in the form of wettable powders (WP) or as emulsion concentrates (EC), were applied onto the green parts of the plants as aqueous suspension or emulsion with addition of 0.5% additive at a water application rate of 600 liters per hectare (converted). After the test plants had been kept in the greenhouse under optimum growth conditions for about 3 weeks, the activity of the preparations was rated visually in comparison to untreated controls. For example, 100% activity=the plants have died, 0% activity=like untreated control plants. Tables B1-B8 below show the effects of selected compounds of the general formula (I) according to Table 1 above on various harmful plants and an application rate corresponding to 1280 g/ha, which were obtained by the experimental procedure mentioned above.

Matricaria inodora [7] = assay: Herbicidal post-emergence action (greenhouse pots), MATIN; details: 1280 g/ha, visual rating about 3 weeks after treatment vs untreated controls
From the text: as §4

Poa annua [8] = assay: Herbicidal early post-emergence action (96-well microtiter plates), POAAN; details: 1900 g/ha, scored 9 to 12 days after treatment, 100% = plants have died, 0% = like untreated control plants
Procedure, shortened: (§5)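 Weed seeds grown in quartz sand in 96-well microtiter plates in a climate chamber and treated at the cotyledon stage, 5 to 7 days after sowing, with EC formulations at 2200 L/ha water and a rate equivalent to 1900 g/ha. Visual scoring after 9 to 12 days against untreated controls (0% = control, 100% = dead).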

Setaria viridis [9] = assay: Herbicidal post-emergence action (greenhouse pots), SETVI; details: 1280 g/ha, rated after about 3 weeks, 100% = plants have died, 0% = like untreated control plants
Procedure, shortened: as §2

Lolium rigidum [10] = assay: Herbicidal pre-emergence action (greenhouse pots), LOLRI; details: 1280 g/ha, visual scoring after about 3 weeks vs untreated controls
From the text: as §3

Amaranthus retroflexus [11] = assay: Herbicidal pre-emergence action (greenhouse pots), AMARE; details: 1280 g/ha, visual scoring after about 3 weeks vs untreated controls
Procedure, shortened: as §1

Agrostis tenuis = assay: Herbicidal early post-emergence action (96-well microtiter plates), AGSTE; details: 1900 g/ha, scored 9 to 12 days after treatment, 100% = plants have died, 0% = like untreated control plants
Procedure, shortened: as §5

Amaranthus retroflexus [12] = assay: Herbicidal post-emergence action (greenhouse pots), AMARE; details: 1280 g/ha, visual rating about 3 weeks after treatment vs untreated controls
Procedure, shortened: as §2

Abutilon theophrasti [13] = assay: Herbicidal post-emergence action (greenhouse pots), ABUTH; details: 1280 g/ha, visual rating about 3 weeks after treatment vs untreated controls
Procedure, shortened: as §2

Echinochloa crus-galli [14] = assay: Herbicidal pre-emergence action (greenhouse pots), ECHCG; details: 1280 g/ha, visual scoring after about 3 weeks vs untreated controls
Procedure, shortened: as §1

Poa annua [15] = assay: Herbicidal post-emergence action (greenhouse pots), POAAN; details: 1280 g/ha, visual rating about 3 weeks after treatment vs untreated controls
Procedure, shortened: as §2

Setaria viridis [16] = assay: Herbicidal pre-emergence action (greenhouse pots), SETVI; details: 1280 g/ha, visual scoring after about 3 weeks vs untreated controls
Procedure, shortened: as §1

Echinochloa crus-galli [17] = assay: Herbicidal post-emergence action (greenhouse pots), ECHCG; details: 1280 g/ha, rated after about 3 weeks, 100% = plants have died, 0% = like untreated control plants
Procedure, shortened: as §2

SMILES | herbicidal activity MATIN (Matricaria inodora [1]) [%] | herbicidal activity STEME (Stellaria media [2]) [%] | herbicidal activity POAAN (Poa annua [3]) [%] | herbicidal activity ABUTH (Abutilon theophrasti [4]) [%] | herbicidal activity STEME (Stellaria media [5]) [%] | LOLRI (herbicidal activity, rated visually in comparison to untreated controls) (Lolium rigidum [6]) [%] | herbicidal activity MATIN (Matricaria inodora [7]) [%] | POAAN (herbicidal activity, scored visually in comparison to untreated controls) (Poa annua [8]) [%] | SETVI (herbicidal activity, rated visually in comparison to untreated controls) (Setaria viridis [9]) [%] | herbicidal activity LOLRI (Lolium rigidum [10]) [%] | herbicidal activity AMARE (Amaranthus retroflexus [11]) [%] | AGSTE (herbicidal activity, scored visually in comparison to untreated controls) (Agrostis tenuis) [%] | herbicidal activity AMARE (Amaranthus retroflexus [12]) [%] | herbicidal activity ABUTH (Abutilon theophrasti [13]) [%] | herbicidal activity ECHCG (Echinochloa crus-galli [14]) [%] | herbicidal activity POAAN (Poa annua [15]) [%] | herbicidal activity SETVI (Setaria viridis [16]) [%] | ECHCG (herbicidal activity, rated visually in comparison to untreated controls) (Echinochloa crus-galli [17]) [%]
N#Cc1cccc(Nc2ncc(Cl)cn2)c1Oc1ccc(F)nc1 [Example 3-55] | 100 | 100 | 100 | 100 | 100 | 90 | 90 | 100 | 90 | 100 | 100 | 100 | 100 | 100 | 100 | 100 | 100 | 
N#Cc1cccc(Nc2ncc(Cl)cn2)c1Oc1ccc(F)cc1 [Example 1-286] | 100 | 100 | 100 | 90 | 100 | 90 |  | 100 | 100 | 90 | 100 | 100 | 100 | 100 |  | 100 | 100 | 100
N#Cc1cccc(Nc2ncc(F)cn2)c1Oc1ccc(F)nc1 [Example 3-53] | 100 | 100 | 100 | 100 | 100 | 90 | 90 | 100 | 90 | 100 | 100 | 100 | 100 | 100 | 100 | 100 | 100 | 100
Fc1ccc(Oc2c(Cl)cccc2Nc2ncc(Cl)cn2)cc1 [Example 1-235] | 100 | 100 | 100 |  | 100 |  | 80 | 100 |  |  | 100 | 100 | 100 | 100 | 90 | 100 | 100 | 100
N#Cc1cccc(Nc2ncc(F)cn2)c1Oc1ccc(F)cc1 [Example 1-267] | 100 | 100 | 100 | 100 | 100 | 90 |  | 100 |  | 100 | 100 | 100 | 100 | 100 | 100 | 100 | 100 | 100
N#Cc1cccc(Nc2ncc(F)cn2)c1Oc1ccc(F)c(F)c1F [Example 1-374] | 100 | 100 | 100 |  | 100 |  | 100 | 100 |  |  | 100 | 100 | 100 | 100 | 100 | 100 | 100 | 100
Fc1ccc(Oc2c(F)cccc2Nc2ncc(Cl)cn2)cc1 [Example 1-204] | 90 | 100 | 100 |  |  | 90 |  | 100 | 100 |  | 100 | 100 |  | 100 | 100 | 100 | 100 | 100
N#Cc1cccc(Nc2ncc(F)cn2)c1Oc1ccc(F)c(F)c1 [Example 1-272] | 100 | 100 | 100 | 100 | 100 | 100 | 100 | 100 | 100 | 100 | 100 | 100 | 100 | 100 | 100 | 100 | 100 | 100
